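Five concentrations, 48 hours, 96-well plates. GI50: concentration for 50% inhibition of growth.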 Active and inactive are the calls of the source. No stated cut-off is given here; in the data, active = GI50 up to about 1.1 µM and inactive = higher.
Experiments:
Experiment in all cases: NCI anticancer screen, dose series, 48 h
MDA-N = test system: MDA-N
SNB-19 = test system: SNB-19
786-0 = test system: 786-0
K562 = test system: K562
HCT-116 = test system: HCT-116
SF-268 = test system: SF-268
A549 = test system: A549
HL-60 = test system: HL-60
COLO 205 = test system: COLO 205
SR = test system: SR
RPMI-8226 = test system: RPMI-8226
NCI-H226 = test system: NCI-H226
OVCAR-5 = test system: OVCAR-5
SK-MEL-28 = test system: SK-MEL-28
SK-OV-3 = test system: SK-OV-3
NCI-H23 = test system: NCI-H23
SW-620 = test system: SW-620
UACC-62 = test system: UACC-62
HOP-62 = test system: HOP-62
SK-MEL-2 = test system: SK-MEL-2

Measured: GI50

O=C(Cc1ccccc1)Nn1c(-c2ccccc2)nc2ccccc2c1=O
inactive: MDA-N > 100 µM | SNB-19 > 100 µM | 786-0 > 100 µM | K562 > 100 µM | HCT-116 > 100 µM | SF-268 > 100 µM | A549 > 100 µM | HL-60 > 100 µM | COLO 205 > 100 µM | SR > 100 µM | RPMI-8226 > 100 µM | NCI-H226 > 100 µM | OVCAR-5 > 100 µM | SK-MEL-28 > 100 µM | SK-OV-3 > 100 µM | NCI-H23 > 100 µM | SW-620 > 100 µM | UACC-62 > 100 µM | HOP-62 > 100 µM

CCOC(=O)c1c(-c2ccc(O)c(OC)c2)c(C#N)c(=S)n(C2OC(CO)C(O)C(O)C2O)c1-c1ccccc1 (stereo not given)
inactive: MDA-N > 100 µM | SNB-19 > 100 µM | 786-0 > 100 µM | K562 > 100 µM | HCT-116 > 100 µM | SF-268 > 100 µM | A549 > 100 µM | HL-60 > 100 µM | COLO 205 > 100 µM | SR > 100 µM | RPMI-8226 72.3 µM | NCI-H226 13 µM | OVCAR-5 > 100 µM | SK-MEL-28 > 100 µM | NCI-H23 > 100 µM | SW-620 > 100 µM | UACC-62 > 100 µM | HOP-62 > 100 µM

COC1OC(CBr)C(OC(c2ccccc2)(c2ccccc2)c2ccccc2)C(OC(c2ccccc2)(c2ccccc2)c2ccccc2)C1OC(c1ccccc1)(c1ccccc1)c1ccccc1 (stereo not given)
inactive: MDA-N 74.3 µM | SNB-19 24.3 µM | 786-0 19.4 µM | K562 > 100 µM | HCT-116 37.6 µM | SF-268 63.5 µM | A549 38.9 µM | HL-60 > 100 µM | COLO 205 > 100 µM | SR > 100 µM | RPMI-8226 65.3 µM | NCI-H226 33.4 µM | OVCAR-5 41 µM | SK-MEL-28 > 100 µM | SK-OV-3 23 µM | NCI-H23 87.3 µM | SW-620 64.1 µM | UACC-62 > 100 µM | HOP-62 25.2 µM

CC(NC(=O)C(C)C(=O)NCc1ccc(C(F)(F)F)cc1)C(N)=O (stereo not given)
inactive: MDA-N > 100 µM | SNB-19 63.8 µM | 786-0 > 100 µM | K562 > 100 µM | HCT-116 > 100 µM | SF-268 > 100 µM | A549 > 100 µM | HL-60 > 100 µM | COLO 205 > 100 µM | SR > 100 µM | RPMI-8226 > 100 µM | NCI-H226 > 100 µM | OVCAR-5 > 100 µM | SK-OV-3 > 100 µM | NCI-H23 > 100 µM | SW-620 > 100 µM | UACC-62 > 100 µM | SK-MEL-2 > 100 µM

CC(=O)Oc1ccc(C)c2c1[C@H]1CC[C@]3(C)[C@@H](OC(C)=O)CC[C@H]3[C@@H]1CC2
inactive: MDA-N 18.5 µM | SNB-19 17.9 µM | 786-0 21.3 µM | K562 23.4 µM | HCT-116 17 µM | SF-268 26.7 µM | A549 20.5 µM | HL-60 20.7 µM | SR 34.1 µM | RPMI-8226 19.4 µM | NCI-H226 21.8 µM | OVCAR-5 > 100 µM | SK-MEL-28 17.3 µM | NCI-H23 16.8 µM | SW-620 18.9 µM | UACC-62 19.9 µM | HOP-62 18.1 µM

c1cc(C[S+]2CCCC2)ccc1C[S+]1CCCC1
inactive: MDA-N > 100 µM | SNB-19 > 100 µM | 786-0 > 100 µM | K562 > 100 µM | HCT-116 > 100 µM | SF-268 > 100 µM | A549 65.5 µM | HL-60 > 100 µM | COLO 205 > 100 µM | SR > 100 µM | RPMI-8226 > 100 µM | NCI-H226 > 100 µM | OVCAR-5 > 100 µM | SK-MEL-28 > 100 µM | SK-OV-3 > 100 µM | NCI-H23 > 100 µM | SW-620 > 100 µM | UACC-62 > 100 µM | HOP-62 > 100 µM

From ChEMBL document CHEMBL1201862, “PubChem BioAssay data set” (2004)
